Data taken from US7378274B2, “Regulatory nucleic acid for the ABC1 gene, molecules modifying its activity and therapeutic uses” (Aventis Pharma S.A., priority 2000, dated 2008).

What was measured:
[1] = tested on: human ABC1 promoter; assay: Luciferase reporter under control of the -200 bp human ABC1 promoter (wild type or E-box mutant), transfected RAW 264.7 cells; assay type: cell-based; conditions: 24 hours, 10 μM 9CRA, 2 μg/ml 22(R)-HOch
From the text: Plasmids containing mutant SP1, AP1, E-box, LXR and deleted E-box fragments were constructed by site-directed mutagenesis using the overlap PCR method and the PXP1 −995 to +120 bp construct (Previato et al., JBC, 1991, 266:18958-63) as template. The primers listed below were used to amplify −200 to +44 bp of the human ABC1 promoter. Upper-case letters represent wild-type sequence whereas lower-case letters represent mutant sequence.
S224-HindIII and 44-HindIII were the upstream and downstream primers used for overlap PCR. The Hind III sites are underlined. The resulting fragments which spanned −200 to +44 of the human ABC1 gene were ligated into the HindIII site of the PXP1 luciferase reporter plasmid (Nordeen et al., Biotechniques, 1988, 6:454-457). All constructs were confirmed by sequencing.
Murine macrophage RAW 264.7 cells and human embryonic kidney 293 cells (American Type Culture Collection, Rockville, Md.) were grown in Dulbecco's modified Eagle's medium (DMEM) with 10% fetal calf serum (FCS). Approximately 1.5×10^5 cells were plated in 12-well plates (Costar, Corning, N.Y.), grown to 50-70% confluency and cotransfected with 1.5 μg of the ABC1 promoter-luciferase plasmid and 0.5 μg of the β-galactosidase vector (pCMVβ;Clontech, Palo Alto, Calif.) by using the Superfectin Reagent Kit (Qiagen, Valencia, Calif.). […]

[2] = tested on: USF1 and USF2; assay: Western analysis of USF1 and USF2 in RAW cell nuclear extracts; assay type: cell-based; conditions: RAW cells stimulated with cholesterol or oxysterols
Procedure: RAW cell nuclear extracts (35 μg protein per lane) from cells stimulated with cholesterol or 22-R-hydroxycholesterol were loaded onto NuPage Bis-Tris 4-12% gradient gels (Invitrogen, Carlsbad, Calif.) and run according to manufacturer's specifications. Proteins were transferred to Immobilon-P PVDF membranes (Millipore Corp, Bedford, Mass.). Antibodies (2 mg/ml stock) were from Santa Cruz Biotechnology, Inc. (Santa Cruz, Calif.) and were used according to manufacturer's specifications. Anti-USF1 C20X (catalog number sc-229X) antibody was used at a dilution of 1/600 and anti-USF2 antibodies C20X (catalog number sc862X) and N18X (catalog number sc861X) were used at a dilution of 1/1000.

[3] = tested on: E-box in the human ABC1 gene promoter; assay: Gel mobility shift assay of E-box (EB) probe with RAW cell nuclear extracts; assay type: binding; conditions: nuclear extracts of stimulated versus unstimulated RAW cells
From the text: Three double-stranded human ABC1 promoter fragments (Fragment A spanning −171 to −71 bp; Fragment EB spanning −156 to −130 bp and Fragment EB spanning −156 to −130 bp) were end-labeled with […] using T4 polynucleotide kinase (Lofstrand, Gaithersburg Md.). Nuclear extracts were isolated from unstimulated RAW 264.7 cell and HepG2 cell as well as RAW 264.7 cells after stimulation with the same concentrations of cholesterol and 22(R)-Hch shown above (Paragon Bioservices Inc. Baltimore, Md.). One ng (10,000 cpm) of radiolabelled probe was added to 2.5 μg nuclear extract in 20 ul of a 20 mM TRIS gel shift buffer (pH 7.9) containing 60 mM KCl, 0.2 mM EDTA, 0.5 mM DTT, 0.25 mM PMS, 1.3 mM MgCl, 10% glycerol, 3% Ficoll and 3 μg of double-stranded poly (dldC) as described (Previato et al., J Biol Chem, 1991, 266:18958-18963) and incubated for 10 minutes on ice followed by 10 minutes at room temperature. The incubated mixture was loaded on a 6% polyacrylamide gel in 0.25×TBE buffer and electrophoresed at 100 V for 90 min followed by autoradiography. For competition assays, nuclear extracts were preincubated for 10 minutes on ice in a 20 μl reaction mixture in the presence or absence of a 100-200-fold excess of double-stranded DNA competitors for Sp1 (−173 to −155 bp), AP1 (−135 to −155 bp), LXR (−54 to −69 bp) and E-box (−158 to −136 bp) before addition of probe. […]

[4] = tested on: regulatory nucleic acid for the human ABC1 gene; assay: Luciferase reporter under control of the -995 to +120 regulatory nucleic acid for the human ABC1 gene, transfected Hepa1-6 cells; assay type: cell-based
From the text: The region of the regulatory acid for the human ABC1 gene which ranges from the nucleotide at position −-995 up to the nucleotide at position +120, with respect to the transcription start site, was amplified by the PCR technique, with the aid of the following pair of primers: • forward primer S995 (SEQ ID No. 12), of sequence 5′-TTGCCGTCGACTGTTTTGGGTAGTTT-3′; and • reverse primer +220R (SEQ ID No. 13), of sequence 5′-GCCCTGTCGACCGGCTCTGTTGGT-3′, • From human genomic DNA present in a BAC vector from a collection of human BAC vectors.
The DNA fragment amplified was digested with the restriction endonuclease Sal 1, and then inserted into the vector PXP1 described by Nordeen et al. (1988, BioTechniques, 6: 454-457), at the Sal 1 restriction site of this vector.
Cells of the Hepa1-6 line (ATCC, Rockville, Md., USA) were cultured in the medium E-MEM (Minimum Essential Medium with Earle's Salts), to which 10% (v/v) of fetal calf serum (BioWhittaker, Walkersville, Md.) was added.
Approximately 1.5×10^5 cells were distributed into each of the wells of a 12-well (2.5 cm) culture plate, and were cultured until approximately 50 to 70% confluence, and were then cotransformed with 1 μg of the plasmid Sal-Lucif and 0.5 μg of the control vector pBetagel (CloneTech Laboratories Inc., Palo Alto, Calif., USA) using the Superfectin Reagent Kit pack (QIAGEN Inc., Valencia, Calif., USA). Two hours after adding the DNA, the culture medium was removed, and replaced with complete AMEM (Minimum Essential Medium Eagle's Alpha Modification) medium. […]
Freshly thawed aliquot fractions were used to quantify the proteins, using the MicroBCA Kit pack (Pierce, Rockford, Ill., USA), as well as to quantify the luciferase and beta-galactosidase production, using, respectively, the Tropix Luciferase Assay Kit and Galacto-Light Plus Kit packs. […]

SMILES | Effect on ABC1 gene transcription (luciferase reporter) [1] | Expression of USF immunoreactive bands (43 and 44 KDa) [2] | Gel shift banding patterns with EB probe [3] | Luciferase activity ([4]; Hepa1-6 cells, in the presence of 50 μg/ml cholesterol, cells recovered 16 hours after medium change) | Increase in the activity ([4]; in the presence versus absence of cholesterol) | Normalized activity ([4]; luciferase normalized to β-galactosidase, in the presence of 50 μg/ml cholesterol)
CC(C)CC[C@@H](O)[C@@H](C)[C@H]1CC[C@H]2[C@@H]3CC=C4C[C@@H](O)CC[C@]4(C)[C@H]3CC[C@]12C [oxysterols, 22-(R)-hydroxycholesterol] | stimulatory effect | not altered | No differences | – | – | –
CC1=C(/C=C/C(C)=C\C=C\C(C)=C\C(=O)O)C(C)(C)CCC1 [CRA, 9-cis-retinoic acid] | stimulatory effect | – | – | – | – | –
CC(C)CCC[C@@H](C)[C@H]1CC[C@H]2[C@@H]3CC=C4C[C@@H](O)CC[C@]4(C)[C@H]3CC[C@]12C [cholesterol] | – | not altered | No differences | 500000 RLU | 1.82 | 13.25
